Reference: PMC2874645 (Aquatic toxicology (Amsterdam, Netherlands), 2010)

Target: T1, farnesoid X receptor alpha (Fxrα) (Oryzias latipes, UniProt H2M6M7)
T1 sequence (H2M6M7 201-485): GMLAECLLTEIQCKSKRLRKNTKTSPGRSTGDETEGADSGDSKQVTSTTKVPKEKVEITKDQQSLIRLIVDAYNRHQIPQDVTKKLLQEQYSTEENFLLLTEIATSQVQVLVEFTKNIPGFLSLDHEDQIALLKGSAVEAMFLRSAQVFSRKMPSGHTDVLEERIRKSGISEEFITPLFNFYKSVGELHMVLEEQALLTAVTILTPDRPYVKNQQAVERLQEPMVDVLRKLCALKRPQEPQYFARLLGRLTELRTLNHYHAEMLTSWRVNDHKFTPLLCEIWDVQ
T1 sequence (Q9UBK2 1-798 partner): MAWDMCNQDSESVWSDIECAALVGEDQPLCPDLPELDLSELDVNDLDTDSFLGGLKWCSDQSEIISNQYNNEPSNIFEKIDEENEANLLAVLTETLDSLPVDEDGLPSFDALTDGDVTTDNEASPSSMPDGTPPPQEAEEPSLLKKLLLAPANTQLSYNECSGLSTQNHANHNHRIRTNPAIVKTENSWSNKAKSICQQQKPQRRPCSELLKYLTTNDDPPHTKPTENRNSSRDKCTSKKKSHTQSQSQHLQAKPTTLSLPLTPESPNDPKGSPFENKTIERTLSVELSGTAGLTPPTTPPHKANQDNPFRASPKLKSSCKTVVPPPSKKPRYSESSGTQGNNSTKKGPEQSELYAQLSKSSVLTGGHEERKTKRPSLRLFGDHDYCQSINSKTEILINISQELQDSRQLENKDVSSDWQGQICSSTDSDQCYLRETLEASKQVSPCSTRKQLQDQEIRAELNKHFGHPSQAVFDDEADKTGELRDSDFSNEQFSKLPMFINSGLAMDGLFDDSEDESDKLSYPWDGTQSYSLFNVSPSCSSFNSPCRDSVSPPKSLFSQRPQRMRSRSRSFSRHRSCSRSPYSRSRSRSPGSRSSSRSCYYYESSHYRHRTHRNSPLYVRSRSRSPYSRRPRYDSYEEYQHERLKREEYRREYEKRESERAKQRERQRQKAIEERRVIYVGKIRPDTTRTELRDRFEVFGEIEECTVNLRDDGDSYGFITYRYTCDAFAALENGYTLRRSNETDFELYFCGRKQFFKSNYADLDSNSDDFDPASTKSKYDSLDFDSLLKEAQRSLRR
Experiment: Gal4-LBD luciferase reporter in PLHC-1 cells at […]
Details: read-out: Gal4-LBD luciferase reporter in PLHC-1 cells at 100 μM

Question: With C[C@H](CCC(=O)O)[C@H]1CC[C@H]2[C@@H]3CC[C@@H]4C[C@H](O)CC[C@]4(C)[C@H]3CC[C@]12C [lithocholic acid] as the compound, how does the fold induction at 100 µM read?
Answer: 10.7

Question: For C[C@H](CCC(=O)NCCS(=O)(=O)O)[C@H]1CC[C@H]2[C@@H]3CC[C@@H]4C[C@H](O)CC[C@]4(C)[C@H]3CC[C@]12C [taurine conjugate of LCA], which fold induction at 100 µM is on record?
Answer: 10.5
